Earlier results on 2 compounds are cited in US5559121A, “Rapamycin formulations for oral administration” (American Home Products Corporation, priority 1995, dated 1996).

For series [1] the following is noted: FASEB 3, 3411 (1989) and others.
The test system of series [2] is smooth muscle cell proliferation and intimal thickening. The note with it: Morris 1992.
The subject of series [3] is insulin dependent diabetes mellitus. The note with it: Fifth Int. Conf. Inflamm. Res. Assoc. 121 (1990).
A further series concerns IgE-like antibodies. The settings on record: Martel 1977.
Another series concerns tumor. The note with it: U.S. Pat. No. 4,885,171 (alone); U.S. Pat. No. 4,401,653 (with picibanil).
The conditions of series [4]: in vivo.
The subject of another series is thymocyte proliferation. The note with it: in vitro.
Series [5] relates to experimental allergic encephalomyelitis. The note with it: Martel 1977.
In another series the test system is allograft rejection. The settings on record: Calne 1989; Morris and Meiser 1989.
In a further series the test system is adjuvant arthritis. The settings on record: Martel 1977.

`C=CC[C@@H]1/C=C(\C)C[C@H](C)C[C@H](OC)[C@H]2O[C@@](O)(C(=O)C(=O)N3CCCC[C@H]3C(=O)O[C@H](/C(C)=C/[C@@H]3CC[C@@H](O)[C@H](OC)C3)[C@H](C)[C@@H](O)CC1=O)[C@H](C)C[C@@H]2OC` [FK-506]: in series [1], the immunosuppressive effects entry is listed as “effective as immunosuppressive agents”.
Regarding `CO[C@H]1C[C@@H]2CC[C@@H](C)[C@@](O)(O2)C(=O)C(=O)N2CCCC[C@H]2C(=O)O[C@H]([C@H](C)C[C@@H]2CC[C@@H](O)[C@H](OC)C2)CC(=O)[C@H](C)/C=C(\C)[C@@H](O)[C@@H](OC)C(=O)[C@H](C)C[C@H](C)/C=C/C=C/C=C/1C` [Rapamycin, rapamycin], the “effect on growth of Candida albicans” value in the series with Candida albicans is on record as “adversely affects the growth”. Also, in series [2], the “preventing or treating smooth muscle cell proliferation and intimal thickening following vascular injury” value is reported as “useful in preventing or treating”. The immunosuppressive effects result in series [1] is listed as “immunosuppressive effects”. Further, in series [3], the “preventing or treating insulin dependent diabetes mellitus” value is reported as “useful in preventing or treating”. For the same compound, the “inhibition of the formation of IgE-like antibodies” value with IgE-like antibodies was “effectively inhibited the formation of IgE-like antibodies”. Moreover, the antitumor activity result in the series on tumor is reported as “antitumor activity”. Moreover, the “immunosuppressive, antifungal and antiinflammatory activity” value in series [4] was “immunosuppressive, antifungal and antiinflammatory activity in vivo”. Moreover, in the series with Microsporum gypseum, the “effect on growth of Microsporum gypseum” value was “adversely affects the growth”. Moreover, in the series with thymocyte proliferation, the “inhibition of thymocyte proliferation” value is “inhibit thymocyte proliferation in vitro”. Besides, the “effectiveness in experimental allergic encephalomyelitis model” value in series [5] is given as “effective”. Also, the “inhibiting rejection in vivo in allograft transplantation” value with allograft rejection is “effectiveness of rapamycin in inhibiting rejection in vivo”. Also, in the series on adjuvant arthritis, the “effectiveness in adjuvant arthritis model” value is recorded as “effective”.
